Results reported in patent US7863271B2, “2-aminobenzoxazole carboxamides as 5HT3 modulators” (Albany Molecular Research, Inc., priority 2006, dated 2011).
Structures can show the parent of a compound that is named as a salt.

What follows are compounds tested against T1, 5-HT3 (Homo sapiens, UniProt P46098) (assay: Compound affinity for the human 5-HT3 receptor (Assay B), SPA radioligand binding with [9-methyl-3H]BRL-43694). Conditions: not given.
T1 sequence (P46098 24-478): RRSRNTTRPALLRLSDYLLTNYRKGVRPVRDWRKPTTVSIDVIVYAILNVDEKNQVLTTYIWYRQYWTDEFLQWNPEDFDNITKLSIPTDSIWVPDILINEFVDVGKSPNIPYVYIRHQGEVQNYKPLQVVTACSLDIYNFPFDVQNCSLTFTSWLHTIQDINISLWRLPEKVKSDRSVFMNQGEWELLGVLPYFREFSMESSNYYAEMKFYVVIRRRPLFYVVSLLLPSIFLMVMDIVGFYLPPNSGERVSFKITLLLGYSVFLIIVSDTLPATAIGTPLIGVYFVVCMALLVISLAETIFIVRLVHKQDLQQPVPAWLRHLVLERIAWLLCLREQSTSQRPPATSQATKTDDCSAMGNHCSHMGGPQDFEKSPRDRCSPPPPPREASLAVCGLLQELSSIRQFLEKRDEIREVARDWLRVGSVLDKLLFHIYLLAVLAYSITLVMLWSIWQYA
Design: purchased Perkin Elmer
Protocol: Compound Affinity for the human 5-HT3 Receptor (Assay B)
The relative affinity of the various compounds for the human 5-HT3 receptor was measured in a radioligand binding assay, using a scintillation proximity assay (SPA) format. Test compounds were dissolved to 10 mM in 100% DMSO, then serially diluted at 10× assay concentrations in 100% DMSO in 96-well polypropylene plates and further diluted to 4× assay concentrations with the assay buffer. […] Binding reactions were set up in wells of PicoPlates-96 (Perkin Elmer) by adding consecutively 50 μL of each competing compound or buffer, SPA beads, the radioligand and 5-HT3 receptor membranes. After 60-min incubation at room temperature on a Nutator mixer, plates were centrifuged for 15 min at 1,500 rpm, followed by incubation in the dark for 30 min. Radioactivity was counted in the TopCount microplate counter (Perkin Elmer) for 5 min. […] Specific binding was determined by subtracting nonspecific binding from total binding. All experiments were performed in duplicate using ten concentrations of a competing ligand, with ondansetron included as a control in every run. IC50 values were determined from specific binding data using XLfit4.1 curve fitting software from IDBS Ltd. Ki values were then calculated from the Cheng-Prusoff equation.

`CN1C[C@H]2C[C@H](NC(=O)c3cccc4oc(Nc5ccccc5)nc34)C[C@@H](C1)N2C` [Example 52, Exo-N-(3,9-Dimethyl-3,9-diazabicyclo[3.3.1]nonan-7-yl)-2-(phenylamino)benzoxazole-4-carboxamide Hydrochloride] gave a Ki of 0.0276 µM.

Same assay, conditions: Assay B (method B unless otherwise annotated); read-out: 5-HT3 Ki

In order of rising Ki:
1. CCC(=O)N1C[C@H](C)N(c2nc3c(C(=O)NC4CC5CCCC(C4)N5C)cccc3o2)[C@@H](C)C1 (stereo partly drawn) [Example 134, Endo-N-(9-methyl-9-azabicyclo[3.3.1]nonan-3-yl)-2-((2S,6S)-2,6-dimethyl-4-propionylpiperazin-1-yl)benzoxazole-4-carboxamide Hydrochloride]  0.0017 µM
2. CN1[C@@H]2CCC[C@H]1C[C@@H](NC(=O)c1cc(Cl)cc3oc(N)nc13)C2 [Example 111, Endo-2-amino-6-chloro-N-(9-Methyl-9-azabicyclo[3.3.1]nonan-3-yl)benzoxazole-4-carboxamide Hydrochloride]  0.002 µM
3. C[C@H]1CN(C(=O)N2CCCC2)C[C@H](C)N1c1nc2c(C(=O)NC3CC4CCCC(C3)N4C)cccc2o1 (stereo partly drawn) [Example 140, Endo-N-(9-methyl-9-azabicyclo[3.3.1]nonan-3-yl)-2-((2S,6S)-2,6-dimethyl-4-(pyrrolidine-1-carbonyl)piperazin-1-yl)benzoxazole-4-carboxamide hydrochloride]  0.0022 µM
4. C[C@H]1COC[C@H](C)N1c1nc2c(C(=O)NC3CC4CCC(C3)N4C)cccc2o1 (stereo partly drawn) [Example 101, N-(8-Methyl-8-azabicyclo[3.2.1]octan-3-yl)-2-(3S,5S)-3,5-dimethylmorpholinobenzoxazole-4-carboxamide Hydrochloride]  0.0026 µM
5. CN1[C@@H]2CCC[C@H]1C[C@@H](NC(=O)c1cccc3oc(Nc4ccncc4)nc13)C2 [Example 27, Endo-N-(9-Methyl-9-azabicyclo[3.3.1]non-3-yl)-2-(pyridine-4-ylamino)benzoxazole-4-carboxamide Dihydrochloride]  0.0045 µM
6. C[C@H]1CNC[C@H](C)N1c1nc2c(C(=O)NC3CC4CCCC(C3)N4C)cc(Cl)cc2o1 (stereo partly drawn) [Example 114, Endo-N-(9-methyl-9-azabicyclo[3.3.1]nonan-3-yl)-6-chloro-2-((2S,6S)-2,6-dimethylpiperazin-1-yl)benzoxazole-4-carboxamide Hydrochloride]  0.0066 µM
7. CN1[C@@H]2CCC[C@H]1C[C@@H](NC(=O)c1cc(F)cc3oc(N)nc13)C2 [Example 121, Endo-2-amino-6-fluoro-N-(9-Methyl-9-azabicyclo[3.3.1]nonan-3-yl)benzoxazole-4-carboxamide Hydrochloride]  0.009 µM
8. CN1[C@@H]2CCC[C@H]1C[C@@H](NC(=O)c1cccc3oc(N4CCCCC4)nc13)C2 [Example 3, Endo-N-(9-Methyl-9-azabicyclo[3.3.1]non-3-yl)-2-(piperidin-1-yl)benzoxazole-4-carboxamide Hydrochloride]  0.0104 µM
9. Cc1cc(C(=O)N[C@H]2C[C@H]3CCC[C@@H](C2)N3C)c2nc(N)oc2c1 [Example 129, Endo-2-amino-6-methyl-N-(9-Methyl-9-azabicyclo[3.3.1]nonan-3-yl)benzoxazole-4-carboxamide Hydrochloride]  0.0107 µM
10. COCCCNc1nc2c(C(=O)NC3CC4CCCC(C3)N4C)cccc2o1 (stereo not drawn) [Example 39, Endo-N-(9-Methyl-9-azabicyclo[3.3.1]nonan-3-yl)-2-(3-methoxypropylamino)benzoxazole-4-carboxamide Hydrochloride]  0.0132 µM
11. CN1[C@@H]2CCC[C@H]1C[C@@H](NC(=O)c1cccc3oc(N4CCOCC4c4ccccc4)nc13)C2 (mixture of isomers) [Example 19, Endo-N-(9-Methyl-9-azabicyclo[3.3.1]non-3-yl)-2-(3-phenylmorpholino)benzoxazole-4-carboxamide Hydrochloride]  0.017 µM
12. CC(O)CCNc1nc2c(C(=O)N[C@H]3C[C@H]4CCC[C@@H](C3)N4C)cccc2o1 (stereo partly drawn) [Example 61, Endo-N-(9-methyl-9-azabicyclo[3.3.1]nonan-3-yl)-2-(3-hydroxybutylamino)benzoxazole-4-carboxamide Hydrochloride]  0.0199 µM
13. CC1CNCCN1c1nc2c(C(=O)N[C@H]3C[C@H]4CCC[C@@H](C3)N4C)cccc2o1 (stereo partly drawn) [Example 25, Endo-N-(9-Methyl-9-azabicyclo[3.3.1]non-3-yl)-2-(2-methylpiperazin-1-yl)benzoxazole-4-carboxamide Dihydrochloride]  0.0275 µM
14. CN1C2CCCC1CC(NC(=O)c1cccc3oc(N4CCOC[C@@H]4CO)nc13)C2 (stereo partly drawn) [Example 94, Endo-N-(9-Methyl-9-azabicyclo[3.3.1]nonan-3-yl)-2-((S)-3-(hydroxymethyl)morpholino)benzoxazole-4-carboxamide Hydrochloride]  0.0275 µM
15. COC1CCN(c2nc3c(C(=O)N[C@H]4C[C@H]5CCC[C@@H](C4)N5C)cccc3o2)CC1 [Example 89, Endo-N-(9-Methyl-9-azabicyclo[3.3.1]nonan-3-yl)-2-(4-methoxypiperidin-1-yl)benzoxazole-4-carboxamide Hydrochloride]  0.0369 µM
16. CC(C)C[C@H]1CN(Cc2ccccc2)CCN1c1nc2c(C(=O)NC3CC4CCCC(C3)N4C)cccc2o1 (stereo partly drawn) [Example 71, Endo-N-(9-Methyl-9-azabicyclo[3.3.1]nonan-3-yl)-2-((2S)-2-isobutyl-4-benzylpiperazin-1-yl)benzoxazole-4-carboxamide Hydrochloride]  0.0486 µM
17. C[C@@H]1CN(c2nc3c(C(=O)NC4CC5CCCC(C4)N5C)cccc3o2)C[C@H](C)O1 (stereo partly drawn) [Example 17, Endo-N-(9-Methyl-9-azabicyclo[3.3.1]non-3-yl)-2-[(2S,6R)-2,6-dimethylmorpholino]benzoxazole-4-carboxamide Hydrochloride]  0.0542 µM
18. CN1[C@@H]2CCC[C@H]1C[C@@H](NC(=O)c1cccc3oc(=O)[nH]c13)C2 [Example 56, Endo-N-(9-Methyl-9-azabicyclo[3.3.1]nonan-3-yl)-2-oxo-2,3-dihydrobenzoxazole-4-carboxamide Hydrochloride]  0.072 µM
19. CN(C)c1nc2c(C(=O)N[C@H]3C[C@H]4COC[C@@H](C3)N4C)cccc2o1 [Example 30, Endo-N-(9-methyl-3-oxa-9-azabicyclo[3.3.1]non-7-yl)-2-(dimethylamino)benzoxazole-4-carboxamide Hydrochloride]  0.079 µM
20. CN(C)CCN(C)c1nc2c(C(=O)N[C@H]3C[C@H]4CCC[C@@H](C3)N4C)cccc2o1 [Example 31, Endo-N-(9-methyl-9-azabicyclo[3.3.1]nonan-3-yl)-2-((2-(dimethylamino)ethyl)(methyl)amino)benzoxazole-4-carboxamide hydrochloride]  0.107 µM
21. CN1C2CCCC1CC(NC(=O)c1cccc3oc(NC4CC5CCCC(C4)N5C)nc13)C2 (stereo not drawn) [Example 37, Endo-N-(9-Methyl-9-azabicyclo[3.3.1]nonan-3-yl)-2-(9-Methyl-9-azabicyclo[3.3.1]non-3-ylamino)benzoxazole-4-carboxamide Trihydrochloride]  0.243 µM
22. CN1CCCN(c2nc3c(C(=O)NC4CN5CCC4CC5)cccc3o2)CC1 [Example 12, (S)—N-(quinuclidine-8-yl)-2-(4-methyl-1,4-diazepam-1-yl)benzoxazole-4-carboxamide Dihydrochloride]  0.317 µM
23. CN1CCN(c2nc3c(C(=O)N[C@@H]4CN5CCC4CC5)cccc3o2)CC1 [Example 2, (S)—N-(quinuclidine-8-yl)-2-(4-methylpiperazin-1-yl)benzoxazole-4-carboxamide Dihydrochloride]  0.382 µM
